{
  "source": "patent US20250308622A1",
  "about": "“METHODS FOR PREDICTING TRANSCRIPTION FACTOR ACTIVITY” (THE REGENTS OF THE UNIVERSITY OF COLORADO, A BODY CORPORATE, priority 2017, published 2025)",
  "key": {"[1]": {"tested_on": "E4F1", "assay": "MD-level time series after flavopiridol", "assay_type": "cell-based", "details": "mouse embryonic cells, time series 0-50 minutes relative to time point 0, FIG. 12D", "source_text": "(§1) The bottom panel of FIG. 4A indicates the change in MD-level (AMDS) following perturbation (y-axis) relative to the number of motifs within 1.5kb of any eRNA origin (x-axis). […] (D) A time series data set following treatment with Flavopiridol Jonkers2014. The y-axis indicates the MD-level change relative to time point 0. Blue dots indicate a MD-level difference <10^−6. A darker shaded line indicates a time trajectory with at least one significant MD-level. (E) Time series data set following treatment with Kdo2-lipid A (KLA) where each time point is normalized to time-matched DMSO Kaikkonen2014. Therefore, the y-axis indicates MD-level difference relative to the time point matched DMSO sample.\n(§2) In each of the aforementioned perturbations, nascent transcription was assessed at a time point of one hour or less.\n(§3) FIG. 12D data set following treatment with Flavopiridol Jonkers2014. The y-axis indicates the MD-level change relative to time point 0. […]\n(§4) The Motif Displacement score (MD-level) relates the proportion of significant motif sites within some window 2*h divided by the total number of motifs against some larger window 2*H centered at all bidirectional origin events. It is calculated on a per PWM binding model basis.\n(§5) Let Xj={x1,x2, . . . } be the set of bidirectional origin locations genome wide for some experiment j. […] Therefore the set of all MD-levels is calculated by equation 10. […]"}, "[2]": {"tested_on": "TP53", "assay": "MD-level time series after flavopiridol", "assay_type": "cell-based", "details": "mouse embryonic cells, time series 0-50 minutes relative to time point 0, FIG. 12D", "source_text": "as §1, §2, §3, §4, §5"}, "[3]": {"tested_on": "TFs", "assay": "MD-level time series after flavopiridol, all TFs", "assay_type": "cell-based", "details": "mouse embryonic cells", "source_text": "as §1, §2, §3, §4, §5"}, "[4]": {"tested_on": "STAT2", "assay": "MD-level time series after Kdo2-lipid A, normalized to time-matched DMSO", "assay_type": "cell-based", "details": "mouse T-cells, 1-24 hour time course, relative to time-matched DMSO, FIG. 12E", "experimental": "(§6) The top panel of FIG. 4A indicates the motif displacement distribution, MD-level, and the number of motifs within […] of any eRNA origin before and after stimulation with Nutlin-3a (e.g., Nutlin) on TP53, the transcription factor known to be activated. […] Blue dots indicate a MD-level difference <10^−6.\n(§7) In each of the aforementioned perturbations, nascent transcription was assessed at a time point of one hour or less. Therefore, it was determined whether MD-levels could capture transcription factor activity across broader time frames. […] For a number of TFs, MD-levels trend upward at 12.5 minutes and show significant changes within 25 minutes of exposure.\n(§8) GEO SRR numbers of these comparisons are outlined in Table 2."}, "[5]": {"tested_on": "interferon (IRF7)", "assay": "MD-level time series after Kdo2-lipid A, normalized to time-matched DMSO", "assay_type": "cell-based", "details": "mouse T-cells, 1-24 hour time course, relative to time-matched DMSO, FIG. 12E", "experimental": "as §6, §7, §8"}, "[6]": {"tested_on": "YBOX1", "assay": "MD-level time series after Kdo2-lipid A, normalized to time-matched DMSO", "assay_type": "cell-based", "details": "mouse T-cells, 1-24 hour time course, relative to time-matched DMSO, FIG. 12E"}, "[7]": {"tested_on": "641 available TF-motif models", "assay": "Differential MD-level analysis before/after Nutlin-3a, all available TF-motif models", "assay_type": "cell-based, human", "details": "HCT116 cells, of 641 TF-motif models, p-value<10^−6, FIG. 12A", "source_text": "as §1, §4\nLet Xj={x1,x2, . . . } be the set of bidirectional origin locations genome wide for some experiment j. Let Yi={y1,y2, . . . } be the set of all significant motif sites for some TF-DNA binding motif model i genome wide, which is static as it only depends on the genome build of interest. Therefore the set of all MD-levels is calculated by equation 10. […]"}},
  "data": [
    {"smiles": "CN1CC[C@H](c2c(O)cc(O)c3c(=O)cc(-c4ccccc4Cl)oc23)[C@H](O)C1", "note": "[flavopiridol]", "values": [
      {"measurement": "change in MD-level of E4F1", "setting": "[1]", "result": "dramatic and monotonic increase"},
      {"measurement": "change in MD-level of TP53", "setting": "[2]", "result": "dramatic and monotonic increase"},
      {"measurement": "MD-levels at 12.5 minutes, a number of TFs", "setting": "[3]; 12.5 minutes of exposure", "result": "trend upward"},
      {"measurement": "time of exposure to significant changes in MD-levels, a number of TFs", "setting": "[3]; significance p<10^−6", "result": "≤ 25", "unit": "min"}
    ]},
    {"smiles": "CCCCCCCCCCCCCC(=O)O[C@H](CCCCCCCCCCC)CC(=O)O[C@@H]1[C@@H](NC(=O)C[C@@H](CCCCCCCCCCC)OC(=O)CCCCCCCCCCC)[C@H](OC[C@H]2O[C@H](OP(=O)(O)O)[C@H](NC(=O)C[C@H](O)CCCCCCCCCCC)[C@@H](OC(=O)C[C@H](O)CCCCCCCCCCC)[C@@H]2O)O[C@H](CO[C@]2(C(=O)O)C[C@@H](O[C@]3(C(=O)O)C[C@@H](O)[C@@H](O)[C@@H]([C@H](O)CO)O3)[C@@H](O)[C@@H]([C@H](O)CO)O2)[C@H]1OP(=O)(O)O", "note": "[Kdo2-lipid A]", "values": [
      {"measurement": "shifts in MD-level of STAT2", "setting": "[4]", "result": "dynamic and time-ordered shifts"},
      {"measurement": "shifts in MD-level of interferon (IRF7)", "setting": "[5]", "result": "dynamic and time-ordered shifts"},
      {"measurement": "change in co-localization (MD-level) of YBOX1", "setting": "[6]", "result": "decreased in co-localization"}
    ]},
    {"smiles": "COc1ccc(C2=N[C@@H](c3ccc(Cl)cc3)[C@@H](c3ccc(Cl)cc3)N2C(=O)N2CCNC(=O)C2)c(OC(C)C)c1", "note": "[Nutlin-3a]", "values": [
      {"measurement": "TF-motif models displaying elevated MD-levels following treatment", "setting": "[7]", "result": "only TP53 and TP63"}
    ]}
  ]
}
